Patent publication US11787780B2 (CORCEPT THERAPEUTICS INCORPORATED, priority 2020, dated 2023)

Tests used:
[1] = system: induction of TAT by dexamethasone in HepG2 cells; assay: Hep G2 TAT assay (inhibition of dexamethasone-induced TAT); format: cell-based, human; settings: agonist induction of TAT, read-out: average EC50 value (half-maximal effect) of TAT production
[2] = system: induction of TAT by dexamethasone in HepG2 cells; assay: as above; format: cell-based, human; settings: challenge of 100 nM dexamethasone, IC50 converted to Ki by Cheng and Prusoff equation
[3] = target: glucocorticoid receptor (GR) recombinant ligand binding domain (LBD) (Homo sapiens (Human), UniProt P04150); assay: GR binding fluorescence polarisation (FP) assay; settings: displacement of fluorescently tagged ligand
Method: Binding of test compounds to the glucocorticoid receptor (GR) is determined using a fluorescence polarisation (FP) assay utilising a recombinant ligand binding domain (LBD) of GR. The test compounds are assessed by their ability to displace a fluorescently tagged ligand and detection of the resulting decrease in fluorescence polarisation.

glucocorticoid receptor (GR) recombinant ligand binding domain (LBD), sequence (P04150 524-758): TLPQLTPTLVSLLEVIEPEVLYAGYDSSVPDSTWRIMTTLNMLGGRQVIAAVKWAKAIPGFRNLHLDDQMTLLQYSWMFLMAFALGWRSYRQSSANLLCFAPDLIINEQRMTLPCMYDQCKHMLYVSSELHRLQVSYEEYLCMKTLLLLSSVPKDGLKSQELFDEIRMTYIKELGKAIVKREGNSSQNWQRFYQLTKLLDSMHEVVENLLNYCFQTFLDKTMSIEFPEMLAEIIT

SMILES	EC50 [1] [nM]	IC50 [3] [nM]	Ki [2] [nM]
C[C@@H]1C[C@H]2[C@@H]3CCC4=CC(=O)C=C[C@]4(C)[C@@]3(F)[C@@H](O)C[C@]2(C)[C@@]1(O)C(=O)CO [Dexamethasone, dexamethasone]	20		
Cc1cc2c(cnn2-c2ccc(F)cc2)cc1C1(CC#CC2CC2)CCN(S(=O)(=O)c2cnn(C)c2)C1 (stereo not drawn) [Example 221, 5-(3-(3-cyclopropylprop-2-yn-1-yl)-1-((1-methyl-1H-pyrazol-4-yl)sulfonyl)pyrrolidin-3-yl)-1-(4-fluorophenyl)-6-methyl-1H-indazole]		56	45

Now from value to compound, other results behind:

EC50 [1] [nM]	IC50 [3] [nM]	SMILES	Ki [2] [nM]
	31	CCn1cc(-n2ncc3cc(C4(Cc5ccccc5)CCN(S(=O)(=O)c5cnn(C)n5)C4)c(C)cc32)cn1 (stereo not drawn) [Example 258, 5-(3-benzyl-1-((2-methyl-2H-1,2,3-triazol-4-yl)sulfonyl)pyrrolidin-3-yl)-1-(1-ethyl-1H-pyrazol-4-yl)-6-methyl-1H-indazole]	76
	87	Cc1cc2c(cnn2-c2cnn(C(F)(F)F)c2)cc1C1(Cc2ccccc2)CCN(S(=O)(=O)c2cnn(C)n2)C1 (stereo not drawn) [Example 254, 5-(3-benzyl-1-((2-methyl-2H-1,2,3-triazol-4-yl)sulfonyl)pyrrolidin-3-yl)-6-methyl-1-(1-(trifluoromethyl)-1H-pyrazol-4-yl)-1H-indazole]	44
	4.8	Cc1cc2c(cnn2-c2cnn(C)c2)cc1C1(Cc2ccccc2)CCN(S(=O)(=O)c2cnn(C)n2)C1 (stereo not drawn) [Example 249, 5-(3-benzyl-1-((2-methyl-2H-1,2,3-triazol-4-yl)sulfonyl)pyrrolidin-3-yl)-6-methyl-1-(1-methyl-1H-pyrazol-4-yl)-1H-indazole]	39
